Experimental data reported in US9446145B2, “Curcumin-antibody conjugates as anti-cancer agents” (priority 2009, dated 2016).

Columns and labels:
B16F10 melanoma cells = test: B16F10 melanoma cell death IC50 (live cell counts 24 h after treatment); assay type: cell-based; details: Mus musculus, B16-F10, 24 h, free/solubilized curcumin, read-out: IC50 (concentration required for 50% B16F10 melanoma cell death)
Protocol: (§1) B16F10 melanoma cells were plated in a 96-well tissue culture plate with 2,000 cells in 50 μl of medium (DMEM+10% fetal bovine serum+1% penicillin-streptomycin) per well. After 24 hours, the targeted curcumin derivative (linked to 633 dye) was administered in a range of concentrations-10 nM, 20 nM, 30 nM, 50 nM, 100 nM. The product was diluted in neurobasal medium (+1% penicillin-streptomycin, 1% 1-glutamine, 2% B27 supplement), with 50 μl per well, and 2 wells per concentration. Control wells were treated with corresponding concentrations of free MUC18 antibody coupled to 633 dye. The plate was imaged after 24 hours using visible light and fluorescent microscopes. Using cell counts from four frames per well, the mean live cell number and mean standard deviation for each concentration (and its corresponding control) were found. The data was compiled and graphed on Kaleida Graph. […] See below. Each corresponding control well received the same amount of curcumin-free Mel-CAM-Dylight800.
Determined using same methods as step 1a. Dilution of 100 nM, 200 nM, 300 nM, 400 nM, 500 nM, 1 μM, 10 μM, 20 μM, 30 μM, 40 μM, and 50 μM were made using a 40 mM stock solution of curcumin in DMSO. Curcumin IC50 was compared to curc-MUC18 IC50 using Kaleida Graph.

GL261 glioblastoma cells = test: GL261 glioblastoma cell killing IC50 (same approach as for B16F10); assay type: cell-based; details: Mus musculus, solubilized non-targeted curcumin
Protocol: as §1
The same approach used for the B16F10 melanoma cells (see above) was next used for the glioblastoma GL261 cells by attaching curcumin to an antibody against the […] antigen, which is expressed on the surface of grade III/IV glioblastoma (Strik, H. M., et al., Galectin-3: Cellular Distribution and Correlation with WHO-grade in Human Gliomas. Journal of Neuro-Oncology, 53(1): p. 13-20 (2001)). […]

## COc1cc(C=CC(=O)CC(=O)C=Cc2ccc(O)c(OC)c2)ccc1O [curcumin, 1,7-bis(4-hydroxy-3-methoxyphenyl)-1,6-heptadiene-3,5-dione]
B16F10 melanoma cells
  IC50: 15 µM
GL261 glioblastoma cells
  IC50: 10 µM
